Source: patent US20230093861A1, “RAPAMYCIN ANALOGS AS MTOR INHIBITORS” (Revolution Medicines, Inc., priority 2017, published 2023)

Experiments:
P-Akt (S473) = assay: Cell based AlphaLISA assay, inhibition of P-Akt (S473) (mTORC2 substrate phosphorylation) in MDA-MB-468 cells; details: Homo sapiens, MDA-MB-468, 4 h, AlphaLISA, two to four hours at 37° C., read-out: pIC50 for Inhibition of mTORC1 and mTORC2 Substrate Phosphorylation, p-AKT 1/2/3 -(S473) (converted)
Outline: (§1)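 AlphaLISA SureFire Ultra read-out of P-4E-BP1 (T37/46), P-P70S6K (T389) and P-Akt (S473) in MDA-MB-468 cells after compound treatment; cells lysed in kit buffer. Alpha signal read in duplicate; IC50 from normalized concentration-response regression with control-based normalization.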

P-4E-BP1 (T37/46) = assay: Cell based AlphaLISA assay, inhibition of P-4E-BP1 (T37/46) (mTORC1 substrate phosphorylation) in MDA-MB-468 cells; details: Homo sapiens, MDA-MB-468, 4 h, AlphaLISA, two to four hours at 37° C., read-out: pIC50 for Inhibition of mTORC1 and mTORC2 Substrate Phosphorylation, P-4E-BP1-(T37/46) (converted)
Outline: as §1

P-P70S6K (T389) = assay: Cell based AlphaLISA assay, inhibition of P-P70S6K (T389) (mTORC1 substrate phosphorylation) in MDA-MB-468 cells; details: Homo sapiens, 4 h, AlphaLISA, two to four hours at 37° C., read-out: pIC50 for Inhibition of mTORC1 and mTORC2 Substrate Phosphorylation, P-P70S6K-(T389) (converted)
Outline: as §1

| SMILES | IC50 (P-Akt (S473)) | IC50 (P-4E-BP1 (T37/46)) | IC50 (P-P70S6K (T389)) |
| --- | --- | --- | --- |
| CCO[C@@H]1C[C@@H]([C@H](C)C[C@@H]2CC[C@H](n3cc(CCCC(=O)NCCOCCOCCOCCC(=O)NCCOCCOCCC(=O)NCCCCn4nc(-c5cc6cc(O)ccc6[nH]5)c5c(N)ncnc54)nn3)[C@H](OC)C2)OC(=O)[C@@H]2CCCCN2C(=O)C(=O)[C@]2(O)O[C@@H](CC[C@H]2C)C[C@H](OC)/C(C)=C/C=C/C=C/[C@@H](C)C[C@@H](C)C(=O)[C@H](OC)[C@H](O)/C(C)=C/[C@H]1C [Example 166] | > 1000 nM | > 1000 nM | > 1000 nM |
| CCO[C@@H]1C[C@@H]([C@H](C)C[C@@H]2CC[C@H](n3cc(CCCC(=O)NCCOCCOCCOCCC(=O)NCCOCCOCCOCCC(=O)NCCCCn4nc(-c5ccc6oc(N)nc6c5)c5c(N)ncnc54)nn3)[C@H](OC)C2)OC(=O)[C@@H]2CCCCN2C(=O)C(=O)[C@]2(O)O[C@@H](CC[C@H]2C)C[C@H](OC)/C(C)=C/C=C/C=C/[C@@H](C)C[C@@H](C)C(=O)[C@H](OC)[C@H](O)/C(C)=C/[C@H]1C [Example 167] | 31.6 to 1000 nM | 31.6 to 1000 nM | 1 to 10 nM |
| CCO[C@@H]1C[C@@H]([C@H](C)C[C@@H]2CC[C@H](n3cc(CCCC(=O)NCCOCCOCCOCCC(=O)NCCOCCOCCOCCC(=O)NCCCCn4nc(-c5cc6cc(O)ccc6[nH]5)c5c(N)ncnc54)nn3)[C@H](OC)C2)OC(=O)[C@@H]2CCCCN2C(=O)C(=O)[C@]2(O)O[C@@H](CC[C@H]2C)C[C@H](OC)/C(C)=C/C=C/C=C/[C@@H](C)C[C@@H](C)C(=O)[C@H](OC)[C@H](O)/C(C)=C/[C@H]1C [Example 168] | > 1000 nM | 31.6 to 1000 nM | 10 to 1000 nM |
| CO/N=C1/C[C@@H]([C@H](C)C[C@@H]2CC[C@H](n3cc(CCCC(=O)NCCOCCOCCOCCC(=O)NCCOCCOCCC(=O)NCCCCn4nc(-c5ccc6oc(N)nc6c5)c5c(N)ncnc54)nn3)[C@H](OC)C2)OC(=O)[C@@H]2CCCCN2C(=O)C(=O)[C@]2(O)O[C@@H](CC[C@H]2C)C[C@H](OC)/C(C)=C/C=C/C=C/[C@@H](C)C[C@@H](C)C(=O)[C@H](OC)[C@H](O)/C(C)=C/[C@H]1C [Example 169] | > 1000 nM | > 1000 nM | 10 to 1000 nM |
| CO/N=C1/C[C@@H]([C@H](C)C[C@@H]2CC[C@H](n3cc(CCCC(=O)NCCOCCOCCOCCC(=O)NCCOCCOCCC(=O)NCCCCn4nc(-c5cc6cc(O)ccc6[nH]5)c5c(N)ncnc54)nn3)[C@H](OC)C2)OC(=O)[C@@H]2CCCCN2C(=O)C(=O)[C@]2(O)O[C@@H](CC[C@H]2C)C[C@H](OC)/C(C)=C/C=C/C=C/[C@@H](C)C[C@@H](C)C(=O)[C@H](OC)[C@H](O)/C(C)=C/[C@H]1C [Example 170] | > 1000 nM | > 1000 nM | 10 to 1000 nM |
| CO/N=C1/C[C@@H]([C@H](C)C[C@@H]2CC[C@H](n3cc(CCCC(=O)NCCOCCOCCOCCC(=O)NCCOCCOCCOCCC(=O)NCCCCn4nc(-c5ccc6oc(N)nc6c5)c5c(N)ncnc54)nn3)[C@H](OC)C2)OC(=O)[C@@H]2CCCCN2C(=O)C(=O)[C@]2(O)O[C@@H](CC[C@H]2C)C[C@H](OC)/C(C)=C/C=C/C=C/[C@@H](C)C[C@@H](C)C(=O)[C@H](OC)[C@H](O)/C(C)=C/[C@H]1C [Example 171] | > 1000 nM | 31.6 to 1000 nM | 10 to 1000 nM |
| CO/N=C1/C[C@@H]([C@H](C)C[C@@H]2CC[C@H](n3cc(CCCC(=O)NCCOCCOCCOCCC(=O)NCCOCCOCCOCCC(=O)NCCCCn4nc(-c5cc6cc(O)ccc6[nH]5)c5c(N)ncnc54)nn3)[C@H](OC)C2)OC(=O)[C@@H]2CCCCN2C(=O)C(=O)[C@]2(O)O[C@@H](CC[C@H]2C)C[C@H](OC)/C(C)=C/C=C/C=C/[C@@H](C)C[C@@H](C)C(=O)[C@H](OC)[C@H](O)/C(C)=C/[C@H]1C [Example 172] | > 1000 nM | > 1000 nM | 10 to 1000 nM |
| CO[C@H]1C[C@@H]2CC[C@@H](C)[C@@](O)(O2)C(=O)C(=O)N2CCCC[C@H]2C(=O)O[C@H]([C@H](C)C[C@@H]2CC[C@H](n3cc(CCCC(=O)NCCOCCOCCOCCC(=O)NCCOCCOCCC(=O)NCCCCn4nc(-c5ccc6oc(N)nc6c5)c5c(N)ncnc54)nn3)[C@H](OC)C2)C/C(=N/OCc2ccccc2)[C@H](C)/C=C(\C)[C@@H](O)[C@@H](OC)C(=O)[C@H](C)C[C@H](C)/C=C/C=C/C=C/1C [Example 173] | > 1000 nM | > 1000 nM | 10 to 1000 nM |
| CO[C@H]1C[C@@H]2CC[C@@H](C)[C@@](O)(O2)C(=O)C(=O)N2CCCC[C@H]2C(=O)O[C@H]([C@H](C)C[C@@H]2CC[C@H](n3cc(CCCC(=O)NCCOCCOCCOCCC(=O)NCCOCCOCCOCCC(=O)NCCCCn4nc(-c5ccc6oc(N)nc6c5)c5c(N)ncnc54)nn3)[C@H](OC)C2)C/C(=N/OCc2ccccc2)[C@H](C)/C=C(\C)[C@@H](O)[C@@H](OC)C(=O)[C@H](C)C[C@H](C)/C=C/C=C/C=C/1C [Example 174] | > 1000 nM | > 1000 nM | 10 to 1000 nM |
| CO[C@H]1C[C@@H]2CC[C@@H](C)[C@@](O)(O2)C(=O)C(=O)N2CCCC[C@H]2C(=O)O[C@H]([C@H](C)C[C@@H]2CC[C@H](n3cc(CCCC(=O)NCCOCCOCCOCCC(=O)NCCOCCOCCOCCC(=O)NCCCCn4nc(-c5cc6cc(O)ccc6[nH]5)c5c(N)ncnc54)nn3)[C@H](OC)C2)C/C(=N/OCc2ccccc2)[C@H](C)/C=C(\C)[C@@H](O)[C@@H](OC)C(=O)[C@H](C)C[C@H](C)/C=C/C=C/C=C/1C [Example 175] | > 1000 nM | > 1000 nM | > 1000 nM |
| CO[C@H]1C[C@@H]2CC[C@@H](C)[C@@](O)(O2)C(=O)C(=O)N2CCCC[C@H]2C(=O)O[C@H]([C@H](C)C[C@@H]2CC[C@H](n3cc(CCCC(=O)NCCOCCOCCOCCC(=O)NCCOCCOCCC(=O)NCCCCn4nc(-c5ccc6oc(N)nc6c5)c5c(N)ncnc54)nn3)[C@H](OC)C2)C/C(=N/OC(C)(C)C)[C@H](C)/C=C(\C)[C@@H](O)[C@@H](OC)C(=O)[C@H](C)C[C@H](C)/C=C/C=C/C=C/1C [Example 176] | > 1000 nM | > 1000 nM | 10 to 1000 nM |
| CO[C@H]1C[C@@H]2CC[C@@H](C)[C@@](O)(O2)C(=O)C(=O)N2CCCC[C@H]2C(=O)O[C@H]([C@H](C)C[C@@H]2CC[C@H](n3cc(CCCC(=O)NCCOCCOCCOCCC(=O)NCCOCCOCCOCCC(=O)NCCCCn4nc(-c5ccc6oc(N)nc6c5)c5c(N)ncnc54)nn3)[C@H](OC)C2)C/C(=N/OC(C)(C)C)[C@H](C)/C=C(\C)[C@@H](O)[C@@H](OC)C(=O)[C@H](C)C[C@H](C)/C=C/C=C/C=C/1C [Example 177] | > 1000 nM | > 1000 nM | 10 to 1000 nM |
| CO[C@H]1C[C@@H]2CC[C@@H](C)[C@@](O)(O2)C(=O)C(=O)N2CCCC[C@H]2C(=O)O[C@H]([C@H](C)C[C@@H]2CC[C@H](n3cc(CCCC(=O)NCCOCCOCCOCCC(=O)NCCOCCOCCOCCC(=O)NCCCCn4nc(-c5cc6cc(O)ccc6[nH]5)c5c(N)ncnc54)nn3)[C@H](OC)C2)C/C(=N/OC(C)(C)C)[C@H](C)/C=C(\C)[C@@H](O)[C@@H](OC)C(=O)[C@H](C)C[C@H](C)/C=C/C=C/C=C/1C [Example 178] | > 1000 nM | > 1000 nM | 10 to 1000 nM |
| CO[C@H]1C[C@@H]2CC[C@@H](C)[C@@](O)(O2)C(=O)C(=O)N2CCCC[C@H]2C(=O)O[C@H]([C@H](C)C[C@@H]2CC[C@H](n3cc(CCCC(=O)NCCOCCOCCOCCC(=O)NCCOCCOCCOCCC(=O)NCCCCn4nc(-c5cc6cc(O)ccc6[nH]5)c5c(N)ncnc54)nn3)[C@H](OC)C2)C[C@@H](OC)[C@H](C)/C=C(\C)[C@@H](O)[C@@H](OC)C(=O)[C@H](C)C[C@H](C)/C=C/C=C/C=C/1C [Example 179] | > 1000 nM | 31.6 to 1000 nM | 1 to 10 nM |
| CO[C@H]1C[C@@H]2CC[C@@H](C)[C@@](O)(O2)C(=O)C(=O)N2CCCC[C@H]2C(=O)O[C@H]([C@H](C)C[C@@H]2CC[C@H](n3cc(CCCC(=O)N(C)CCOCCOCCOCCC(=O)N(C)CCOCCOCCC(=O)N(C)CCCCn4nc(-c5ccc6oc(N)nc6c5)c5c(N)ncnc54)nn3)[C@H](OC)C2)CC(=O)[C@H](C)/C=C(\C)[C@@H](O)[C@@H](OC)C(=O)[C@H](C)C[C@H](C)/C=C/C=C/C=C/1C [Example 180] | > 1000 nM | > 1000 nM | 1 to 10 nM |
| CO[C@H]1C[C@@H]2CC[C@@H](C)[C@@](O)(O2)C(=O)C(=O)N2CCCC[C@H]2C(=O)O[C@H]([C@H](C)C[C@@H]2CC[C@H](n3cc(COC(=O)NCCOCCOCCC(=O)NCc4cnc(N5CCN(c6ncc(C(=O)NCCCCn7nc(-c8ccc9oc(N)nc9c8)c8c(N)ncnc87)cn6)CC5)nc4)nn3)[C@H](OC)C2)CC(=O)[C@H](C)/C=C(\C)[C@@H](O)[C@@H](OC)C(=O)[C@H](C)C[C@H](C)/C=C/C=C/C=C/1C [Example 181] | 3.16 to 31.6 nM | < 3.16 nM | < 1 nM |
| CO[C@H]1C[C@@H]2CC[C@@H](C)[C@@](O)(O2)C(=O)C(=O)N2CCCC[C@H]2C(=O)O[C@H]([C@H](C)C[C@@H]2CC[C@H](n3cc(COC(=O)NCCOCCOCCC(=O)NCc4cnc(N5CCN(c6ncc(C(=O)NCCCCn7nc(-c8cc9cc(O)ccc9[nH]8)c8c(N)ncnc87)cn6)CC5)nc4)nn3)[C@H](OC)C2)CC(=O)[C@H](C)/C=C(\C)[C@@H](O)[C@@H](OC)C(=O)[C@H](C)C[C@H](C)/C=C/C=C/C=C/1C [Example 182] | > 1000 nM | > 1000 nM | < 1 nM |
